For one assay, the system named is MCF7 breast cancer cells. Put plainly: Cell viability assay, MCF7. Particulars: Homo sapiens, MCF7, 96 h, read-out: Effects on cell growth IC50, MCF7.
Assay [1] concerns the target ERβ LBD/C369-biotin with SRC3 NRID-fluorescein (Homo sapiens, UniProt Q92731). The assay is described as follows: tr-FRET SRC3 titration into ERβ-ligand complex. The settings on record: E2 = 100.
The subject of a further assay is U87 glioma cells. Put plainly: Cell viability assay, U87. The settings on record: 96 h, read-out: Effects on cell growth IC50, U87.
A further assay has as its system LoVo colon cancer cells. Put plainly: Cell viability assay, LoVo. Particulars: 96 h, read-out: Effects on cell growth IC50, LoVo.
For another assay, the system named is HCT colon cancer cells. The assay is described as follows: Cell viability assay, HCT. Particulars: 96 h, read-out: Effects on cell growth IC50, HCT.
Assay [2] addresses T1, purified full-length human ERβ (Homo sapiens, UniProt Q92731). Particulars: for β/α ratio (of RBA values): ERβ RBA / ERα RBA.
Assay [3] deals with MDA-MB-231 breast cancer cells. Put plainly: Cell viability assay, MDA-MB-231. Particulars: Homo sapiens, MDA-MB-231, 96 h, read-out: Effects on cell growth IC50, MDA231.
Assay [4] deals with SkBr3 breast cancer cells. The assay is described as follows: Cell viability assay, SkBr3. Particulars: Homo sapiens, SK-BR-3, 96 h, read-out: Effects on cell growth IC50, SkBr3.
Assay [5] has as its target T1, purified full-length human ERβ. Put plainly: biochemical.
The target in assay [6] is ERβ/C369-biotin-SaTb with SRC3 NRID-fluorescein (Homo sapiens, UniProt Q92731). The assay is described as follows: tr-FRET ligand titration into ERβ and SRC3. Particulars: read-out: Ligand coactivator recruitment potency (Ligand titration) EC50; ligand titrated into 1 nM ERβ LBD, 0.25 nM SaTb, 100 nM SRC3-fluorescein; mean ± SD. The class given is biochemical.
Chain of ERβ/C369-biotin-SaTb with SRC3 NRID-fluorescein (Q9Y6Q9 627-829): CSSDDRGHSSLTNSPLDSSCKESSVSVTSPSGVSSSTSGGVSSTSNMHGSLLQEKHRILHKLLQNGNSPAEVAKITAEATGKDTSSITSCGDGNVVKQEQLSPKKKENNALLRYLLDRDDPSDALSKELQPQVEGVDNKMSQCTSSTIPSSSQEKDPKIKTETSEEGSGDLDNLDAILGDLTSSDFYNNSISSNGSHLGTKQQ
Chain of ERβ/C369-biotin-SaTb with SRC3 NRID-fluorescein (Q92731 256-503): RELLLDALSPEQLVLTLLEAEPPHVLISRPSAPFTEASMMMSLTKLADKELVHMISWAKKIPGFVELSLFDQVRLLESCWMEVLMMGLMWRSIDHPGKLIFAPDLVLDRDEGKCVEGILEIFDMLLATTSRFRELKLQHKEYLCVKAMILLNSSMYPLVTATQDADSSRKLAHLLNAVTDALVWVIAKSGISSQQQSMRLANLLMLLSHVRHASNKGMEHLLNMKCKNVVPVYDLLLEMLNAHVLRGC

Each structure is given as a SMILES string. Like-named read-outs stand apart in the source and are kept apart here.

Chain of ERβ LBD/C369-biotin with SRC3 NRID-fluorescein (Q9Y6Q9 627-829): as the sequence (Q9Y6Q9 627-829) above
Chain of ERβ LBD/C369-biotin with SRC3 NRID-fluorescein (Q92731 256-503): as the sequence (Q92731 256-503) above
T1 sequence (Q92731 whole entry): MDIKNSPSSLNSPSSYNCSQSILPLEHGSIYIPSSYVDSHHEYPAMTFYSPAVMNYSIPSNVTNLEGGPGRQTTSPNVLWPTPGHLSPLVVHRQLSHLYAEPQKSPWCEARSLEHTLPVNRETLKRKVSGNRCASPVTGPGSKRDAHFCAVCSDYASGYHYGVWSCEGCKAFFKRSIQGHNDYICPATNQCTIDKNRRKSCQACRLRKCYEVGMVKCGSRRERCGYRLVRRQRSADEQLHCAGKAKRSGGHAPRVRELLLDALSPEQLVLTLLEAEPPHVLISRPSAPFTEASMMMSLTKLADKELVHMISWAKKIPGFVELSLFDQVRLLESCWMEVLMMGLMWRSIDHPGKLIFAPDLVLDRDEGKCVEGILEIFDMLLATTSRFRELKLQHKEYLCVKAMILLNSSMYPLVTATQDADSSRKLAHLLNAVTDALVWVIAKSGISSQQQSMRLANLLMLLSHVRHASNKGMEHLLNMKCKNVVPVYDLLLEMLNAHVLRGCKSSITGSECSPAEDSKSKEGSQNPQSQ

As for `O/N=C1\CCc2c(-c3ccc(O)cc3)ccc(O)c21` [1a, (E)-7-hydroxy-4-(4-hydroxyphenyl)-2,3-dihydro-1H-inden-1-one oxime], the 50% inhibitory concentration (IC50) (commonly the concentration that gives 50% inhibition) in the assay on MCF7 breast cancer cells was determined as 70.1 ± 12.4 µM; in the assay with U87 glioma cells (Homo sapiens, U-87 MG), 150.7 ± 1.2 µM; with LoVo colon cancer cells (Homo sapiens, LoVo) it was 19.8 ± 2.1 µM; in the assay with HCT colon cancer cells (Homo sapiens) it was 61.5 ± 8.8 µM; in assay [3], 42.3 ± 1.1 µM; in assay [4], 140 ± 11.2 µM. For the same molecule, in assay [1], the “Efficacy % (completeness of the curves relative to E2)” value is 93%. Moreover, the “β/α ratio (of RBA values)” value in assay [2] is 16. In addition, in assay [5], the inhibition constant (Ki) (in general, the dissociation constant of the complex between target and ligand, obtained from inhibition or displacement) turned out to be 0.0117 µM. Besides, the EC50 in [6] stood at 0.0142 ± 0.003 µM.

As for `O=C1C[C@@H](c2ccc(O)cc2)Oc2cc(O)ccc21` [Liquiritigenin, reference compound], the IC50 in the assay on U87 glioma cells (human glioma, mean ± SD) stood at 115 ± 11.7 µM; in the assay on LoVo colon cancer cells (human colon cancer, mean ± SD) it was 101 ± 10.2 µM; in the assay with HCT colon cancer cells (human colon cancer, mean ± SD), 75.3 ± 7.1 µM.

As for `COc1ccc(-c2ccc(O)c3c2CC/C3=N\O)cc1Cl` [1h, (E)-4-(3-chloro-4-methoxyphenyl)-7-hydroxy-2,3-dihydro-1H-inden-1-one oxime], in assay [2], the “β/α ratio (of RBA values)” value is 0.50.

For the molecule `COc1ccc(-c2ccc(O)c3c2CC/C3=N\O)cc1C` [1f, (E)-7-hydroxy-4-(4-methoxy-3-methylphenyl)-2,3-dihydro-1H-inden-1-one oxime], the “β/α ratio (of RBA values)” value in [2] turned out to be 1.0.

As to `Cc1cc(-c2ccc(O)c3c2CC/C3=N\O)ccc1O` [1e, (E)-7-hydroxy-4-(4-hydroxy-3-methylphenyl)-2,3-dihydro-1H-inden-1-one oxime], the “β/α ratio (of RBA values)” value in [2] stood at 6.3.

Take `O/N=C1\CCc2c(-c3ccc(O)c(F)c3)ccc(O)c21` [1c, (E)-4-(3-fluoro-4-hydroxyphenyl)-7-hydroxy-2,3-dihydro-1H-inden-1-one oxime]: the IC50 in the assay with MCF7 breast cancer cells was found to be 23.2 ± 1.4 µM; in the assay on U87 glioma cells (Homo sapiens, U-87 MG), 32.3 ± 1.1 µM; in the assay with LoVo colon cancer cells (Homo sapiens, LoVo), 14.5 ± 3.1 µM; with HCT colon cancer cells (Homo sapiens), 10.8 ± 1.2 µM; in [3], 8.1 ± 1.3 µM; in assay [4], 130 ± 9.7 µM. For the same molecule, the “Efficacy % (completeness of the curves relative to E2)” value in assay [1] worked out at 88%. Further, the “β/α ratio (of RBA values)” value in assay [2] is recorded as 33. For the same molecule, in assay [5], the Ki was 0.0106 µM. Further, in [6], the EC50 was found to be 0.0195 ± 0.0026 µM.

In the case of `COc1ccc(-c2ccc(O)c3c2CC/C3=N\O)cc1` [1b, (E)-7-hydroxy-4-(4-methoxyphenyl)-2,3-dihydro-1H-inden-1-one oxime], in assay [2], the “β/α ratio (of RBA values)” value came to 3.0.

On to `O/N=C1\CCc2c(-c3ccc(O)c(Cl)c3)ccc(O)c21` [1g, (E)-4-(3-chloro-4-hydroxyphenyl)-7-hydroxy-2,3-dihydro-1H-inden-1-one oxime], for which, in assay [2], the “β/α ratio (of RBA values)” value is 8.0.

In the case of `COc1ccc(-c2ccc(O)c3c2CC/C3=N\O)cc1F` [1d, (E)-4-(3-fluoro-4-methoxyphenyl)-7-hydroxy-2,3-dihydro-1H-inden-1-one oxime], in assay [2], the “β/α ratio (of RBA values)” value is reported as 0.8.

For `O/N=C1\CCc2c(-c3ccccc3)ccc(O)c21` [1i, (E)-7-hydroxy-4-phenyl-2,3-dihydro-1H-inden-1-one oxime], the “Efficacy % (completeness of the curves relative to E2)” value in assay [1] was 72%. Also, in [2], the “β/α ratio (of RBA values)” value amounted to 89. Besides, the “decrease of ERβ affinity compared to 1a” value in [2] (from RBA values) was 24 fold. Also, the affinity in [5], expressed as Ki, was 0.282 µM. Also, the EC50 in assay [6] was 0.393 ± 0.124 µM.
